The test system of assay [1] is E. coli K-12 MG1655 (DA4201). The experiment in a line: AgSol-antibiotic synergy screening assay / MIC (Ag/Antibiotic screen). The class given is cell-based, Escherichia coli. As to conditions: for fold increase in effect with AgSol vs antibiotic alone: Table 6, E. coli; for Antibiotic MIC, NB + AgSol1000: antibiotic in combination with AgSol1000 at ¼ × MIC silver; for Fold change (antibiotic MIC, NB vs NB + AgSol1000): dash = MIC unchanged. As to the method: (§1) The MIC (Minimal Inhibitory Concentration) of a bacterium to a certain antimicrobial agent gives a quantitative estimate of the susceptibility. MIC is defined as the lowest concentration of antimicrobial agent required to inhibit growth of the organism. The principle is simple: Agar plates, tubes or microtitre trays with two-fold dilutions of antibiotics are inoculated with a standardized inoculum of the bacteria and incubated under standardized conditions following NCCLS guidelines. The next day, the MIC is recorded as the lowest concentration of antimicrobial agent with no visible growth. The MIC informs you about the degree of resistance and might give you important information about the resistance mechanism and the resistance genes involved. MIC-determination performed as agar dilution is regarded as the gold standard for susceptibility testing (Source: Global Salm-Surv—A global Salmonella surveillance and laboratory support project of the World Health Organization (4th Ed. April 2002, modified November 2010))
(§2) The Minimum Inhibitory Concentration (MIC) of nanosilver (silver) was determined by two-fold dilution series in NaCl free Nutrient Broth (Sigma-Aldrich) in 15 ml screw cap tubes. The tubes were incubated in the dark over night at 37° C. without shaking. The MIC was determined as the lowest concentration of nanosilver (silver) at which no visible growth was observed.
(§3) Antibiotic stock solutions were serially diluted in 2-fold steps in pre-warmed (37° C.) nutrient broth (NB) to prepare an antibiotic concentration gradient above and below the minimal inhibitory concentration (MIC) of antibiotic (Table 4). 50 μl of prepared dilutions were aliquoted into a 96-well round bottom plate (Nunc, Thermo Fisher) for the screening assay.
(§4) Silver formulation (AgSol1000 (particles with 19 Ag per silica particle), AgSol300 (particles with 6 Ag per silica particle, AgNO3), aluminum coated silica beads (159/500 (silica particles with aluminium silicate coating)) and uncoated silica beads (15/500) were diluted in pre-warmed (37° C.) NB. Bindzil®15/500 is an unmodified silica sol, whereas Bindzil®159/500 is a aluminosilicate modified silica sol. Bindzil® is sold by Akzo Nobel AB.
(§5) 40 μl of the prepared dilutions were added to the 96-well plate containing antibiotic gradient to reach the final silver concentration of ¼×MICAgSol (silver) (specific for the microorganism used) (Table 5).
(§6) Overnight (16-20 h) cultures of 3 biological replicates of the following microorganisms E. coli K-12 MG1655 (DA4201), E. coli K-12 MG1655 rpsL K42N (DA49828), Pseudomonas aeruginosa PAO1 (DA6215) or Staphylococcus aureus USA300 JE2 (DA28823) were grown in NB till saturation (37° C. incubator with 190 rpm shaking). Cultures were diluted in NB to 10^7 CFU/ml and 10 μl of the dilution were added to the 96-well plate containing antibiotic gradient and silver formulations or the bead controls to reach the final concentration of 10^5 CFU/well in 100 μl total volume per well. 3 technical replicates (3 wells) of specific antibiotic concentration in combination with silver and microorganism were used. A control plate containing bacterial cells mixed with only antibiotic gradient was always included too.
(§7) The prepared plate was incubated in 37° C. incubator without shaking in the dark for 16-20 h and the optical density (OD620) of each well was measured in plate reader Multiscan FC (Thermo Fisher).

The subject of assay [2] is E. coli K-12 MG1655 rpsL K42N (DA49828). Put plainly: AgSol-antibiotic synergy screening assay / MIC. The class given is cell-based. As to conditions: Escherichia coli. The protocol: as §1, §2, §3, §4, §5, §6, §7
Assay [3] relates to S. enterica Typhimurium LT2. The experiment in a line: AgSol-antibiotic synergy screening assay. The class given is cell-based, Salmonella enterica. As to conditions: Salmonella; FIGS. 2A-2F. The protocol:
as §3, §4, §5, §7

Assay [4] relates to Pseudomonas aeruginosa PAO1 (DA6215). The experiment in a line: AgSol-antibiotic synergy screening assay / MIC. The class given is cell-based. The protocol:
as §1, §2, §3, §4, §5, §6, §7

For assay [5], the system named is gentamicin-resistant P. aeruginosa (DA60255). The experiment in a line: AgSol-antibiotic synergy screening assay / MIC, gentamicin-resistant strain. It counts as cell-based, Pseudomonas aeruginosa. As to conditions: AgSol1000 at 0.25×MIC; FIG. 9.
Assay [6] deals with Pseudomonas aeruginosa PAO1 (DA6215). Put plainly: Time-kill assay. To be noted: for time-kill: effect of gentamicin in combination with AgSol: 0-48 h, FIGS. 8A, 8B. It counts as cell-based. As to the method: Antibiotic stock solutions were diluted in pre-warmed (37° C.) nutrient broth (NB) to prepare 2×MIC concentration (Table 4) of antibiotic in the final volume of 2 ml in 15 ml tubes (Sarstedt).
Silver formulation (AgSol1000, AgNO3) was diluted in pre-warmed (37° C.) NB and added to the tube containing antibiotic to reach the final silver concentration of ¼×MICAgsol (silver) (Table 5) in the final volume of 2 ml.
Overnight (16-20 h) cultures of 2 biological replicates of the following microorganisms Pseudomonas aeruginosa PAO1 (DA6215) or Staphylococcus aureus USA300 JE2 (DA28823) were grown in NB till saturation (37° C. incubator with 190 rpm shaking). Cultures were diluted (1/100) in pre-warmed (37° C.) NB and incubated in 37° C. incubator with 190 rpm shaking until they reached exponential growth phase (OD600˜0.2). Final concentration of approximately 10^6 CFU/ml of exponentially dividing cells was used in the total volume of 2 ml mixture of antibiotic and silver formulation. Control tubes with only bacterial cells or bacterial cells mixed with only antibiotic or only silver formulation were also used.
All tubes were incubated in 37° C. water bath with 150 rpm shaking and 100 μl samples were taken out at pre-determined time points for viable counts (2 technical replicates). CFU counts were normalized to the 0 h sample and were plotted as a function of time (h).
A “Time Kill” test was performed with S. aureus USA3000 JE2 and Fusidic acid (FUS) and Mupirocin (MUP) and with P. aeruginosa (PAO1) with gentamicin (GEN). From a stock solution with bacteria with controlled growth at 37° C. during 16 h, […] were prepared: • Bacterial cells • Bacterial cells+AgSol • Bacterial cells+AgNO3; • Bacterial cells+AgSol+antibiotic • Bacterial cells+AgNO3+antibiotic
Samples were taken after 0, 4, 8, 24 and 48 hours at 37° C. (incubation with shaking). The samples were plated for viable counts, CFU counts normalized to 0 h and plotted as a function of time.

Read-outs that look alike come from different tables or passages of the source.

For the molecule `[H]/N=C(/N)N[C@H]1[C@H](O)[C@@H](O)[C@H](O[C@@H]2O[C@@H](C)[C@](O)(C=O)[C@H]2O[C@@H]2O[C@@H](CO)[C@H](O)[C@@H](O)[C@@H]2NC)[C@@H](N/C(N)=N\[H])[C@@H]1O` [Streptomycin], the MIC in assay [1] (Escherichia coli, MG1655, antibiotic alone, E. coli (DA4201), values used for antibiotic gradient, read-out: MIC) amounted to 0.5 µg/mL; in assay [1] (Escherichia coli, MG1655, antibiotic alone, nutrient broth, read-out: Antibiotic MIC, NB), 0.5 µg/mL; in assay [2], 2000 µg/mL. The “fold increase in effect with AgSol vs antibiotic alone” value in assay [1] came out at 17 fold. For the same molecule, the “Antibiotic MIC, NB + AgSol1000” value in assay [1] (nutrient broth) turned out to be 0.03 µg/mL. Also, the “Fold change (antibiotic MIC, NB vs NB + AgSol1000)” value in assay [1] is 17x. In addition, the “synergistic antibacterial effect of antibiotic in combination with AgSol” value in assay [1] (vs antibiotic alone, E. coli MG 1655 K-12) is given as “markedly improved synergistic effect”. Also, the “synergetic effect of antibiotic in combination with silver” value in assay [3] was “stronger synergetic effect”.
For the molecule Gentamicin, in assay [1] (listed as Gentamycin), the “fold increase in effect with AgSol vs antibiotic alone” value is on record as 17 fold. Also, the minimal inhibitory concentration (MIC) was 0.5 µg/mL in assay [1] (antibiotic alone, E. coli (DA4201), values used for antibiotic gradient) and 0.375 µg/mL in assay [4] (antibiotic alone, P. aeruginosa (DA6215), values used for antibiotic gradient). Also, the “Antibiotic MIC, NB” value in assay [1] (antibiotic alone, nutrient broth) worked out at 0.5 µg/mL. Further, the “Antibiotic MIC, NB + AgSol1000” value in assay [1] (nutrient broth) turned out to be 0.03 µg/mL. In addition, in assay [1], the “Fold change (antibiotic MIC, NB vs NB + AgSol1000)” value is 17x. In assay [4] (P. aeruginosa (PAO1), FIG. 3), the “synergistic effect of gentamicin in combination with AgSol” value was −50%. In addition, the “synergistic anti-bacterial effect of antibiotic in combination with colloidal dispersion” value in assay [4] (P. aeruginosa, FIGS. 3, 8, 9) is “synergistic anti-bacterial effect”. Further, in assay [4] (gentamicin 0.19 ug/ml with silver), the “effect on bacteria (OD620) of combination silver/gentamicin” value is “complete killing of bacteria”. In addition, the “effect on OD620 of gentamicin alone” value in assay [4] (gentamicin 0.19 ug/ml without silver) is “almost no reduction in OD620”. For the same molecule, the “anti-bacterial effect of AgSol and gentamycin on resistant strain” value in assay [5] is “confirmed the anti-bacterial effect”. The “time to almost complete killing (bactericidal effect), gentamicin in combination with AgSol” value in assay [6] is at most 24 h. The “time-kill: effect of gentamicin in combination with AgSol” value was “no bacterial growth is visible within 48 hours” in assay [6] and “even stronger bactericidal effect” in assay [6] (listed as GEN).

As a reminder, the MIC is the lowest concentration that inhibits growth of the organism.

The values are drawn from patent US20210196738A1, “PHARMACEUTICAL COMPOSITION COMPRISING A COLLOIDAL DISPERSION AND A THERAPEUTIC AGENT AND METHODS AND USES THEREOF” (priority 2017, published 2021).
